How the values were obtained:
[1] = tested on: strain CB1190, strain D11, and strain D17; experiment: Proliferation of 1,4-dioxane-degrading bacteria in the presence of diethylene glycol (Example 1); assay type: cell-based; conditions: 28° C., nine days
Protocol: Strain CB1190, strain D11, and strain D17 were used as 1,4-dioxane-degrading bacteria. Each degradation bacterium was cultured for ten days using a CGY medium (casitone: 5 g/L, glycerin: 5 g/L, yeast extract: 1 g/L) containing 1,4-dioxane at a concentration of 500 mg/L. After cultivation, the bacterial cells were harvested and washed with a centrifugal separator, and then mixed with 20 mL of physiological saline, in such a manner that an inoculum suspension was obtained. It should be noted that an inoculum suspension (OD600: approximately 10) which was turbidity-standardized using a spectrophotometer was used as the inoculum suspension. […]
The bacterial cells in the culture solution were collected as […] by suction filtration after the culture was finished. Then, the […] was dried at 105° C. overnight, and the weight of the bacterial cells was measured, in such a manner that the bacterial cell concentration (mg-dry cell/L) was obtained. Proliferation of the bacterial cells was evaluated by Δ bacterial cell concentration obtained by subtracting the initial bacterial cell concentration from the bacterial cell concentration on the ninth day of culture. […]

SDIMO-bearing bacteria = experiment: PCR detection of SDIMO gene in contaminated soil cultured with diethylene glycol (Example 9); assay type: cell-based; conditions: seven contaminated soil samples, diethylene glycol 20 g/L, six days
Protocol: The proliferation of SDIMO-bearing bacteria by culturing in a medium supplemented with diethylene glycol was investigated in seven types of soil collected from different places at sites contaminated with 1,4-dioxane. It should be noted that the proliferation of SDIMO-bearing bacteria was evaluated by an increase in PCR amplification products of about 420 bp derived from a SDIMO-encoding gene (a SDIMO gene).
The soil with a wet weight of 10 g was added to an Erlenmeyer flask of 300 ml in which the liquid medium of 90 ml (medium composition: K2HPO4: 1 g/L, (NH4)2SO4: 1 g/L, NaCl: 50 mg/L, MgSO4.7H2O: 200 mg/L, FeCl3: 10 mg/L, CaCl2: 50 mg/L, pH: 7.0) was placed. Then, diethylene glycol was added such that the final concentration became 20 g/L and the rotary shaking culture was carried out at 28° C. and 120 rpm.
The samples were collected immediately after diethylene glycol was added and after six days by 5 ml, respectively, and a supernatant was removed by centrifugation (10,000×g, 4° C., 5 min), and then DNA was recovered from the soil of 0.5 g (of wet weight). For DNA extraction, a soil DNA extraction kit (manufactured by Nippon Gene Co., Ltd., product name: ISOIL for Beads Beating) was used and the extracted DNA was purified using a DNA fragment purification kit (Toyobo Co., Ltd., product name: MagExtractor-PCR & Gel Clean up-). […]

strain D17 = experiment: Bacterial cell concentration measurement at different diethylene glycol concentrations (Examples 3 to 7); assay type: cell-based, Pseudonocardia sp. D17; conditions: diethylene glycol increased from 1 g/L to 10 g/L, seven days
Protocol: 100 mL of a liquid medium (medium composition: K2HPO4: 1 g/L, (NH4)2SO4: 1 g/L, NaCl: 50 mg/L, MgSO4.7H2O: 200 mg/L, FeCl3: 10 mg/L, CaCl2: 50 mg/L, pH: 7.3) containing diethylene glycol of 1 g/L was added to an Erlenmeyer flask equipped with baffles with a volume of 300 mL. Next, strain D17 which was inoculated in the MGY medium in advance was cultured (initial bacterial cell concentration: 111 mg-dry cell/L) and was subjected to the rotary shaking culture at 28° C. and 120 rpm for seven days.
Degradation bacteria were cultured in the same manner as in Example 3 except that the concentration of diethylene glycol in the liquid medium was set to be 5 g/L. […]
The bacterial cells in the culture solution were collected as a filter residue through suction filtration after the cultivation was finished and the bacterial cells were dried at 105° C. overnight, and then the weight of the collected bacterial cells was measured. The bacterial cell concentration (mg-dry cell/L) was obtained from the value of the measured bacterial cell weight. […] The proliferation property of the bacterial cells was evaluated by Δ bacterial cell concentration which was obtained by subtracting the initial bacterial cell concentration from the bacterial cell concentration on the seventh day of culturing.

With `OCCOCCO` [diethylene glycol] the “proliferation properties (Δ bacterial cell concentration)” value ([1]; diethylene glycol 1 g/L as carbon source, all three degradation bacteria) was “could grow using diethylene glycol as a carbon source”, the “proliferation properties (Δ bacterial cell concentration)” value ([1]; diethylene glycol 1 g/L, strain D17) was “extremely high proliferation properties” and the “PCR amplification product of about 420 bp (SDIMO gene) before and after culturing” value (SDIMO-bearing bacteria) was “preferentially proliferated SDIMO-bearing bacteria”. The bacterial cell concentration (strain D17) was “increased”.

Reference: patent US10364415B2, “1,4-dioxane-degrading bacteria culture method, medium, and 1,4-dioxane treatment method using 1,4-dioxane-degrading bacteria” (TAISEI CORPORATION, priority 2014, dated 2019)
